According to patent EP1435231B1, “Non-pegylated long-circulating liposomes” (Bharat Serums & Vaccines Ltd., priority 2002, dated 2004):

Key:
[1] = Pharmacokinetic study of doxorubicin formulations in mice (plasma, HPLC); design: species or system Swiss albino mice; conditions: mouse, in vivo, 10 mg/kg
Procedure: Blood samples after collection were centrifuged at 4000 rpm for 20 min and the plasma was separated and frozen at -20°C until analysed. The frozen plasma was thawed and used for analysis.
1ml of acetonitrile was added to 100 µL of plasma, vortexed for 10 min, centrifuged at 3250 rpm for 10 min. The supernatant was withdrawn and 0.5ml of saturated ZnSO4 solution was added to it. The resulting solution was vortexed for 5 min and then centrifuged for 10 min at 3250 rpm. The upper organic layer was then withdrawn and dried under oxygen free nitrogen gas at 60°C. The residue obtained was then reconstituted with 200µL of Solvent A containing ZnSO4. 100 µL of this solution was then injected in the HPLC column.
Student's t-test was used for comparison between the three formulations.

[2] = tested on: drug resistant (Pgp+) DLD-1 human colon tumour; test: Efficacy in nude athymic mice implanted with multidrug resistant, Pgp positive DLD-1 tumour xenografts; conditions: mouse, in vivo
Procedure: Animals, nude athymic mice, 4 mice/group (10 in Control group) implanted subcutaneously with human DLD-1 colon tumour via trocar implant.
All agents were administered to nude athymic mice i.v. via tail vein on day 5 and 12 after s.c. tumour implant with the multidrug resistant, Pgp positive, human colon tumour xenograft.

[3] = tested on: Dogs; test: Subacute toxicity in dogs; conditions: dog, in vivo
Description: • clinical signs of toxicity, • body weight, • haemodynamic parameters, • haematology and • biochemical parameters TABLE 7

Substance: Adriamycin^®
- Cl [1]: 200.96 mL/h
- Kel [1]: 4.852
- MTD relative to that of the liposomal formulations [2]: about half
- Liver Function Test: aspartate aminotranferase, alanine aminotranferase and total bilirubin levels [3]: Increase
- creatinine phosphokinase and lactate dehydrogenase levels [3]: Increase
- Body weight ([3]; 1 mg/kg): decrease in the bodyweight
- Haemodynamic Parameters: Heart rate ([3]; 1 mg/kg): Increases by average + 29.17%
- Haemodynamic Parameters: Respiratory rate ([3]; 1 mg/kg): Decreases by average -42.12%
